From patent US20230332245A1, “Complement as Prognostic and Predictive Biomarker and Potential Therapeutic Target in Renal Cell Carcinoma” (Texas Tech University System, priority 2020, published 2023)

What was measured:
Type in all cases: in vivo, mouse
[1] = test system: genes associated with T cell exhaustion; proangiogenic genes; assay: Real time quantitative PCR of gene expression in Renca tumors; conditions: relative to placebo; FIG. 6K
Experimental: (§1) Mouse studies were approved by the Institutional Animal Care and Use Committee of the Texas Tech University Health Sciences Center. Eight to twelve weeks old BALB/c, C3ar1, and C5ar1 knockout mice from the Jackson Laboratory were injected s.c. with 1×10^6 Renca cells (ATCC® CRL2947™). When tumors reached ˜5 mm in diameter mice were assigned to treatment cohorts and treated with, C3aR1 inhibitor SB 290157 (Sigma-Aldrich, 10 mg/kg i.p. twice a day), C5aR1 inhibitor PMX53 [17] (1 mg/kg, i.p. every other day), or PD-1 antibody (RMP1-14, BE-0146, Bio X Cell, 250 μg per mouse i.p. every 4 days), or RaIgG2a isotype control (BE-0089, Bio X Cell, 250 μg i.p. every 4 days), as previously described. CD8^+ T cells were depleted by intraperitoneal (i.p.) injection of 200 μg of CD8a-neutralizing antibody (2.43, Bio X cell, NH) per mouse, each day, for three consecutive days, prior to injecting tumor cells. […] BALB/c control mice were treated in the same manner with rat IgG2b (LTF-2, Bio X cell).
RNA was extracted from frozen tissue using RNeasy plus mini kit (Qiagen) and cDNA was generated using High-Capacity RNA-to-cDNA™ kit (Applied Biosystems). […] Relative expression was calculated using the 2^−ΔΔCt method and RT2 profiler PCR Array Data Analysis (SAB Biosciences) and normalized to GAPDH.

[2] = test system: Renca cells; assay: Tumor growth in anti-PD-1-recalcitrant Renca model of RCC; conditions: BALB/c mice, s.c. Renca tumors; vs placebo (PBS) or isotype IgG; FIG. 6A, 6C
Experimental: as §1
To test in vivo the role of complement proteins, the inventors used RCC-Renca (ATCC® CRL-2947™), a murine RCC model that while differing from human RCC, has been extensively evaluated in immunotherapy studies and is known to be recalcitrant to ICI [34], and therefore, potentially resembles ICI-resistant RCC. […]

[3] = test system: CD8^+ T cells in tumors (TIL); assay: Flow cytometry of CD8+ T cells (TIL) and IFN-γ expressing TIL in Renca tumors
Experimental: Mouse studies were approved by the Institutional Animal Care and Use Committee of the Texas Tech University Health Sciences Center. Eight to twelve weeks old BALB/c, C3ar1, and C5ar1 knockout mice from the Jackson Laboratory were injected s.c. with 1×10^6 Renca cells (ATCC® CRL2947™). When tumors reached ˜5 mm in diameter mice were assigned to treatment cohorts and treated with, C3aR1 inhibitor SB 290157 (Sigma-Aldrich, 10 mg/kg i.p. twice a day), C5aR1 inhibitor PMX53 [17] (1 mg/kg, i.p. every other day), or PD-1 antibody (RMP1-14, BE-0146, Bio X Cell, 250 μg per mouse i.p. every 4 days), or RaIgG2a isotype control (BE-0089, Bio X Cell, 250 μg i.p. every 4 days), as previously described. […]
Cells from tumors were pre-incubated with CD16/32 antibody (Fc block; 2.4G2; BD Pharmingen) and stained with fluorochrome-conjugated antibodies from Biolegend: BV605-CD45 (30-F11), AF700-CD3 (17A2), PerCP/Cy5.5-CD4 (GK1.5), and PE/Cy7-CD8α (53-6.7) as recommended by the manufacturer. To quantify IFN-γ expression, cells were stained with surface markers and permeabilized with Cytofix/Cytoperm (554714, BD Biosciences), and washed with 1× Perm/Wash buffer (554714, BD Biosciences) followed by incubation with PE-IFN-γ (XMG1.2, Biolegend). […] Data were acquired on BD Fortessa and analyzed with FlowJo software (Tree Star).

Row | Compound | expression of genes associated with T cell exhaustion (Pdcd1, Ctla4, Btla, Fas, Stat3) in tumors [1] | tumor growth (tumor volumes) [2] | TIL function: production of IFN-γ upon ex-vivo restimulation ([3]; FACS after CD3/CD28 restimulation, FIG. 6G-6J) | recruitment of CD8+ T cells to tumors (TIL) ([3]; FACS, FIG. 6D, 6F)
1 | NC(N)=NCCC[C@H](NC(=O)COCC(c1ccccc1)c1ccccc1)C(=O)O [SB290157] | Btla and Fas were upregulated | reduced tumor growth | highest production of IFN-γ | –
2 | PMX53 | reduction in the expression | reduced tumor growth | – | influx CD8^+ T cells to tumors
